Source: patent US20230075368A1, “IDENTIFICATION OF AN EGFR-BIN3 PATHWAY THAT ACTIVELY SUPPRESSES INVASION AND REDUCES TUMOR SIZE IN GLIOBLASTOMA” (The United States Govemment as represented by the …, priority 2020, published 2023)

System: Mayo PDX cells
Test: Matrigel invasion assay
Assay type: cell-based, human
Experimental: Invasion status of cells was tested with Matrigel Boyden chamber assays (Fisher). 1×10^5 cells were plated on BD BioCoat Matrigel invasion chambers. 24 hours after treatment with drugs, invaded cells were stained with the HEMA-3 kit (Fisher). Invaded cells were counted in 4-5 random fields.
An equal number of cells (5×10^4) were seeded on Matrigel coated inserts, and were untreated (control vehicle) or stimulated with 50 ng/ml EGF for 24 hours, cells invading to the other side of the membrane were counted and presented as percentage cell invasion. […] A similar invasion assay was conducted on GBM26 cells (FIG. 2D). […] Cells were transfected with EGFR or scrambled siRNA for 48 hours before the invasion assay. A similar invasion assay was performed on GBM6 (FIG. 2G). […] Cells were transiently transfected with empty or EGFR wildtype (EGFRwt) overexpressing vector, and invasion assay was performed after 48 hours after transfection. […] Cells were treated with or without 50 ng/ml EGF for 48 hours before the assay. The Western blot images are representative of three independent biological replicates. Actin served as loading control. Data are represented as mean±SEM from three independent experiments. *P<0.05, **P<0.01, n.s. not significant, unpaired two-tailed Student's t-test.
FIG. 3C and FIG. 3D show the results of a Matrigel invasion assay of EGFR siRNA knockdown in GBM12 and GBM6 in response to EGF. Cells were treated with EGFR or scrambled siRNA for 48 hours, transfected cells were seeded on Matrigel coated inserts and were treated with or without 50 ng/ml EGF for 24 hours. […] Cells were transiently transfected with EGFRvIII expression or empty vector, invasion assay was performed 48 hours after transfection. […] Western blot images are representative of three independent biological replicates. Actin served as a loading control. Data are represented as mean±SEM from three independent experiments. […], **P<0.01, ***P<0.001, n.s. not significant, unpaired two-tailed t-test.

C#Cc1cccc(Nc2ncnc3cc(OCCOC)c(OCCOC)cc23)c1 [erlotinib, Erlotinib]
cell invasion (erlotinib 1 μM, 24 hours, GBM12, GBM26): suppressed the invasiveness | cell invasion (erlotinib, 48 h): returns to baseline
